Assay results published in US10344060B2 (priority 2013, dated 2019).

Tests used:
hNav1.5 = hNav1.5 (Homo sapiens, UniProt Q14524); experiment: cell-based; settings: Table 12; ratio of PX tonic IC50 values
hNav1.4 = hNav1.4 (Homo sapiens, UniProt P35499); experiment: cell-based; format: cell-based; settings: Table 12; ratio of PX tonic IC50 values
Chain of hNav1.4 (P35499 whole entry): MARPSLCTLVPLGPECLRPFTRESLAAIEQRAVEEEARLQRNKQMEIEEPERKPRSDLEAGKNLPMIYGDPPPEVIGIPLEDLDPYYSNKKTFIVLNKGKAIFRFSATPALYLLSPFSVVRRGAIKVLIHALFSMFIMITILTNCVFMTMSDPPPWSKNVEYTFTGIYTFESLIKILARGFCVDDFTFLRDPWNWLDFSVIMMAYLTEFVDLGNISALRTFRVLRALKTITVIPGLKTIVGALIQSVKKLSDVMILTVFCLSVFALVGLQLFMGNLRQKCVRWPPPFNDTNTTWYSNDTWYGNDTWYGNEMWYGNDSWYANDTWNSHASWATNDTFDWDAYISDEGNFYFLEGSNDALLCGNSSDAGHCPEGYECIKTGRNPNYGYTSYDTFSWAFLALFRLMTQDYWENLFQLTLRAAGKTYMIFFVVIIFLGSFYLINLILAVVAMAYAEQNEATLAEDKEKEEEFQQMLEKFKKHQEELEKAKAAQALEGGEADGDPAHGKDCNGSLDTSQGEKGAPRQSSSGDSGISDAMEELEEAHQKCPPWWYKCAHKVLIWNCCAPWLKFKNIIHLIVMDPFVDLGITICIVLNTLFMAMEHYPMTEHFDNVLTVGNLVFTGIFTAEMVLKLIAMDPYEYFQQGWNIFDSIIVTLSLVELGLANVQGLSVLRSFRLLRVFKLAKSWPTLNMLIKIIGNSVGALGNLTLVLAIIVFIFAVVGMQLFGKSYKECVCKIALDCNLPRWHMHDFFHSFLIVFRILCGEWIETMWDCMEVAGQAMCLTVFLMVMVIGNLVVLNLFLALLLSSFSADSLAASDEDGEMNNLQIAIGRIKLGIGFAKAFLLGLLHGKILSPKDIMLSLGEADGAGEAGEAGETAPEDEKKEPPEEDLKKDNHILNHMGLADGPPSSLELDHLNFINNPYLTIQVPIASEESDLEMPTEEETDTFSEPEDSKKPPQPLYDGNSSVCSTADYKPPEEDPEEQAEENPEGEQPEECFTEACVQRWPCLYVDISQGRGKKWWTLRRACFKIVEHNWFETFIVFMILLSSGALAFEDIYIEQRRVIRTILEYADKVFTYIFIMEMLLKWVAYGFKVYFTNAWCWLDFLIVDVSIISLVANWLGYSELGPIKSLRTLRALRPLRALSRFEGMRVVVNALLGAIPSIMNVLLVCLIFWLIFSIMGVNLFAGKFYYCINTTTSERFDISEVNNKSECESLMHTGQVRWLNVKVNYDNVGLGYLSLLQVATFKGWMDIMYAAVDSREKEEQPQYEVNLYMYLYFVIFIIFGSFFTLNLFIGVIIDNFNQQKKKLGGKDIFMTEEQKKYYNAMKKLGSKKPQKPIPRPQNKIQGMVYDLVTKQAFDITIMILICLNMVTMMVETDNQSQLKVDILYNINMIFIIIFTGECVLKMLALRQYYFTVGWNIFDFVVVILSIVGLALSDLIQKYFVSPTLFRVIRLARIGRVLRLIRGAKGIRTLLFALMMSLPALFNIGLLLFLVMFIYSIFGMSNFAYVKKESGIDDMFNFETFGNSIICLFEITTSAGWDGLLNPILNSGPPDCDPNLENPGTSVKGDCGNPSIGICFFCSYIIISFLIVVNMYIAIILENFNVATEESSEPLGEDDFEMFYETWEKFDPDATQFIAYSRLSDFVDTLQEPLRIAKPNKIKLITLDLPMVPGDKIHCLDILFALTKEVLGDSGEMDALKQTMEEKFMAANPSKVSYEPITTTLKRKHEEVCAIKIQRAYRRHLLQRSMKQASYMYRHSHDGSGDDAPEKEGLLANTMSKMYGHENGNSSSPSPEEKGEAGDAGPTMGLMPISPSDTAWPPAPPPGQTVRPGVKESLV

Chain of hNav1.5 (Q14524 whole entry): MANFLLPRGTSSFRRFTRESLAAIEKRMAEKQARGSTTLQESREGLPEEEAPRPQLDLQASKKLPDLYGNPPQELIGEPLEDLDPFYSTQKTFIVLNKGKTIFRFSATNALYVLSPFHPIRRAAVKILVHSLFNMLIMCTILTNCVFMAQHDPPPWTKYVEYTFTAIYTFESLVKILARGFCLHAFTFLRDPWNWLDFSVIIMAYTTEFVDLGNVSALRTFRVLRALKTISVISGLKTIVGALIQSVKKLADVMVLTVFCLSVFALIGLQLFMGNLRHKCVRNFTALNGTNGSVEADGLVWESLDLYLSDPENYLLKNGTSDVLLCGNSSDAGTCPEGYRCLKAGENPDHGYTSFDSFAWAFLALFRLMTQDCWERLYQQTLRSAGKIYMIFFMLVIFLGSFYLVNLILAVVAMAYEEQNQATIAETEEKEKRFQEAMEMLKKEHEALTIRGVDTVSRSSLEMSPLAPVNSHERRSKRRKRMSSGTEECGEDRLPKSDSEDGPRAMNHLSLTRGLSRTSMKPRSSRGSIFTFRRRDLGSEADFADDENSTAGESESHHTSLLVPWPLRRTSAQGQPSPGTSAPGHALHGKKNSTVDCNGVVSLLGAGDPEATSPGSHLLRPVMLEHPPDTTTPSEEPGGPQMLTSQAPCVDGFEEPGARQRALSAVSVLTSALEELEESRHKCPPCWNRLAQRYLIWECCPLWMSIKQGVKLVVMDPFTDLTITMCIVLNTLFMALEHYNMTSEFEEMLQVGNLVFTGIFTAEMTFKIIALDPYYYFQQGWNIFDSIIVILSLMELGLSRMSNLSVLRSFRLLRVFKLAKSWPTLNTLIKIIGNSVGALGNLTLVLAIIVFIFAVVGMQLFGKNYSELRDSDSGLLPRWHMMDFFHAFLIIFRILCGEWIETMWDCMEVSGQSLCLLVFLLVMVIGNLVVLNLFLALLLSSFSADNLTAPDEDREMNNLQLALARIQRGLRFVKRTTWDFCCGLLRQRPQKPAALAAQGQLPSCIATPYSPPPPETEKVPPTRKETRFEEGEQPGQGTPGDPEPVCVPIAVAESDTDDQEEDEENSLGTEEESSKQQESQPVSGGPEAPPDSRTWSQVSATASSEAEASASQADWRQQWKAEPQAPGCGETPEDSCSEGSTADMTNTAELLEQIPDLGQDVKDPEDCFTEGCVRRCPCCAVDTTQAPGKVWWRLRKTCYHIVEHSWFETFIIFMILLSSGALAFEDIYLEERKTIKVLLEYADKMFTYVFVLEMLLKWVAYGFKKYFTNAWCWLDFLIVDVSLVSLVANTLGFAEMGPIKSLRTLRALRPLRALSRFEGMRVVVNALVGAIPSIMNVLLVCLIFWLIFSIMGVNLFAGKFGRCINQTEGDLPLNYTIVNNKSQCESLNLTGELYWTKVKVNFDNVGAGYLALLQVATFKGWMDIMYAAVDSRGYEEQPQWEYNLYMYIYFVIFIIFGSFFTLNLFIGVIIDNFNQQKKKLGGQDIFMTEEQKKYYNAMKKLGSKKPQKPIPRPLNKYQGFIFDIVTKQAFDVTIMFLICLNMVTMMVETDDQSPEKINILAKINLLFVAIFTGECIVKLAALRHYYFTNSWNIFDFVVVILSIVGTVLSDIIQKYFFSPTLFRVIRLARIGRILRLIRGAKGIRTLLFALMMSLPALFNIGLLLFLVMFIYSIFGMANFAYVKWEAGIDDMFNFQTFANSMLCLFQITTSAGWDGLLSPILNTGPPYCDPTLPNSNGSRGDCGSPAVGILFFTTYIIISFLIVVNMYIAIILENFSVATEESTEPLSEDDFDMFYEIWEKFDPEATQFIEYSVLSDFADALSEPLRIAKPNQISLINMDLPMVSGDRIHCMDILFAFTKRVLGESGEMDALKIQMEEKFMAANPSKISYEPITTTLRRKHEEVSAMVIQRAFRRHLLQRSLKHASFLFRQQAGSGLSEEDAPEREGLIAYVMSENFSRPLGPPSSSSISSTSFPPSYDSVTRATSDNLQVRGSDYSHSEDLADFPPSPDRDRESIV

Compound	Nav1.5/Nav1.7 (hNav1.5)	Nav1.4/Nav1.7 (hNav1.4)
C#CC[C@@H]1NC(=O)[C@H](CCCNC(=N)N)NC(=O)[C@H](CCCCN)NC(=O)[C@H](CO)NC(=O)[C@H](CC(=O)O)NC(=O)[C@@H]2CSSC[C@@H]3NC(=O)[C@H](CCC(=O)O)NC(=O)[C@H](CC(C)C)NC(=O)CNC(=O)[C@H](CCC(=O)O)NC(=O)[C@H](CSSC[C@H](NC(=O)[C@@H](N)Cc4ccc(O)cc4)C(=O)N[C@@H](CCC(N)=O)C(=O)N[C@@H](CCCCN)C(=O)N[C@@H](Cc4c[nH]c5ccccc45)C(=O)N[C@@H](CCCC)C(=O)N[C@@H](Cc4c[nH]c5ccccc45)C(=O)N[C@@H]([C@@H](C)O)C(=O)N2)NC(=O)[C@H](CSSC[C@@H](C(=O)N[C@@H](CCCNC(=N)N)C(=O)N[C@@H](CCCCN)C(=O)N[C@@H](Cc2ccc(O)cc2)C(=O)N[C@H](C(N)=O)[C@@H](C)CC)NC(=O)[C@H](Cc2c[nH]c4ccccc24)NC(=O)[C@H](CC(C)C)NC(=O)[C@H](CCCCN)NC3=O)NC1=O [compound 316]	2099	402
C#CC[C@H](N)C(=O)NCCOCCOCCOCCOCCC(=O)NCCCC[C@@H]1NC(=O)[C@@H]2CSSC[C@H](NC(=O)[C@H](Cc3ccc(O)cc3)NC(=O)[C@@H](N)CC#N)C(=O)N[C@@H](CCC(N)=O)C(=O)N[C@@H](CCCCN)C(=O)N[C@@H](Cc3c[nH]c4ccccc34)C(=O)N[C@@H](CCCC)C(=O)N[C@@H](Cc3c[nH]c4ccccc34)C(=O)N[C@@H]([C@@H](C)O)C(=O)N[C@H]3CSSC[C@H](NC(=O)[C@H](CCCNC(=N)N)NC(=O)[C@H](CC(C)C)NC(=O)CNC1=O)C(=O)N[C@@H](CCCCN)C(=O)N[C@@H](CC(C)C)C(=O)N[C@@H](Cc1c[nH]c4ccccc14)C(=O)N[C@H](C(=O)N[C@@H](CCCNC(=N)N)C(=O)N[C@@H](CCCCN)C(=O)N[C@H](C(=O)N[C@H](C(N)=O)[C@@H](C)CC)[C@@H](C)CC)CSSC[C@H](NC(=O)[C@H](C)NC(=O)[C@H](CCCNC(=N)N)NC(=O)[C@H](CCCCN)NC(=O)[C@H](CO)NC(=O)[C@H](CC(=O)O)NC3=O)C(=O)N2 [compound 385]	0	0
C#CC[C@H](N)C(=O)N[C@@H](Cc1ccc(O)cc1)C(=O)N[C@H]1CSSC[C@@H]2NC(=O)[C@@H]3CSSC[C@@H](C(=O)N[C@@H](CCCNC(=N)N)C(=O)N[C@@H](CCCCN)C(=O)N[C@H](C(=O)N[C@@H](Cc4c[nH]c5ccccc45)C(N)=O)[C@@H](C)CC)NC(=O)[C@H](Cc4c[nH]c5ccccc45)NC(=O)[C@H](CC(C)C)NC(=O)[C@H](CCCCN)NC(=O)[C@H](CSSC[C@H](NC(=O)[C@H]([C@@H](C)O)NC(=O)[C@H](Cc4c[nH]c5ccccc45)NC(=O)[C@H](CC(C)C)NC(=O)[C@H](Cc4c[nH]c5ccccc45)NC(=O)[C@H](CCCCN)NC(=O)[C@H](CCC(N)=O)NC1=O)C(=O)N[C@@H](CC(=O)O)C(=O)N[C@@H](CO)C(=O)N[C@@H](CCCCN)C(=O)N[C@@H](CCCNC(=N)N)C(=O)N[C@@H](C)C(=O)N3)NC(=O)[C@H](CCC(=O)O)NC(=O)[C@H](CC(C)C)NC(=O)CNC(=O)[C@H](CCC(=O)O)NC2=O [compound 299]	2332	2069
C#CC[C@H](N)C(=O)NCCOCCOCCOCCOCCOCCOCCOCCOCCOCCOCCOCCOCCC(=O)NCCCC[C@@H]1NC(=O)[C@H](CCCNC(=N)N)NC(=O)[C@H](CCCCN)NC(=O)[C@H](CO)NC(=O)[C@H](CC(=O)O)NC(=O)[C@@H]2CSSC[C@@H]3NC(=O)[C@H](CCC(=O)O)NC(=O)[C@H](CC(C)C)NC(=O)CNC(=O)[C@H](CCC(=O)O)NC(=O)[C@H](CSSC[C@H](NC(=O)[C@@H](N)Cc4ccc(O)cc4)C(=O)N[C@@H](CCC(N)=O)C(=O)N[C@@H](CCCCN)C(=O)N[C@@H](Cc4c[nH]c5ccccc45)C(=O)N[C@@H](CCCC)C(=O)N[C@@H](Cc4c[nH]c5ccccc45)C(=O)N[C@@H]([C@@H](C)O)C(=O)N2)NC(=O)[C@H](CSSC[C@@H](C(=O)N[C@@H](CCCNC(=N)N)C(=O)N[C@@H](CCCCN)C(=O)N[C@H](C(=O)N[C@@H](Cc2c[nH]c4ccccc24)C(N)=O)[C@@H](C)CC)NC(=O)[C@H](Cc2c[nH]c4ccccc24)NC(=O)[C@H](CC(C)C)NC(=O)[C@H](CCCCN)NC3=O)NC1=O [compound 290]	12	5
C#CC[C@H](N)C(=O)N[C@@H](Cc1ccc(O)cc1)C(=O)N[C@H]1CSSC[C@@H]2NC(=O)[C@@H]3CSSC[C@@H](C(=O)N[C@@H](CCCNC(=N)N)C(=O)N[C@@H](CCCCN)C(=O)N[C@@H](Cc4ccc(O)cc4)C(=O)N[C@H](C(N)=O)[C@@H](C)CC)NC(=O)[C@H](Cc4c[nH]c5ccccc45)NC(=O)[C@H](CC(C)C)NC(=O)[C@H](CCCCN)NC(=O)[C@H](CSSC[C@H](NC(=O)[C@H]([C@@H](C)O)NC(=O)[C@H](Cc4c[nH]c5ccccc45)NC(=O)[C@H](CCCC)NC(=O)[C@H](Cc4c[nH]c5ccccc45)NC(=O)[C@H](CCCCN)NC(=O)[C@H](CCC(N)=O)NC1=O)C(=O)N[C@@H](CC(=O)O)C(=O)N[C@@H](CO)C(=O)N[C@@H](CCCCN)C(=O)N[C@@H](CCCNC(=N)N)C(=O)N[C@@H](C)C(=O)N3)NC(=O)[C@H](CCC(=O)O)NC(=O)[C@H](CC(C)C)NC(=O)CNC(=O)[C@H](CCC(=O)O)NC2=O [compound 313]	10226	2261
C#CC[C@@H]1NC(=O)[C@H](CCCNC(=N)N)NC(=O)[C@H](CCCCN)NC(=O)[C@H](CO)NC(=O)[C@H](CC(=O)O)NC(=O)[C@@H]2CSSC[C@@H]3NC(=O)[C@H](CCC(=O)O)NC(=O)[C@H](CC(C)C)NC(=O)CNC(=O)[C@H](CCC(=O)O)NC(=O)[C@H](CSSC[C@H](NC(=O)[C@@H](N)Cc4ccc(O)cc4)C(=O)N[C@@H](CCC(N)=O)C(=O)N[C@@H](CCCCN)C(=O)N[C@@H](Cc4c[nH]c5ccccc45)C(=O)N[C@@H](CCCC)C(=O)N[C@@H](Cc4c[nH]c5ccccc45)C(=O)N[C@@H]([C@@H](C)O)C(=O)N2)NC(=O)[C@H](CSSC[C@@H](C(=O)N[C@@H](CCCNC(=N)N)C(=O)N[C@@H](CCCCN)C(=O)N[C@H](C(=O)N[C@H](C(N)=O)[C@@H](C)CC)[C@@H](C)CC)NC(=O)[C@H](Cc2c[nH]c4ccccc24)NC(=O)[C@H](CC(C)C)NC(=O)[C@H](CCCCN)NC3=O)NC1=O [compound 345]	638	232
C#CC[C@H](N)C(=O)NCCOCCOCCOCCOCCC(=O)NCCCC[C@@H]1NC(=O)[C@H](CCCNC(=N)N)NC(=O)[C@H](CCCCN)NC(=O)[C@H](CO)NC(=O)[C@H](CC(=O)O)NC(=O)[C@@H]2CSSC[C@@H]3NC(=O)[C@H](CCC(=O)O)NC(=O)[C@H](CC(C)C)NC(=O)CNC(=O)[C@H](CCC(=O)O)NC(=O)[C@H](CSSC[C@H](NC(=O)[C@@H](N)Cc4ccc(O)cc4)C(=O)N[C@@H](CCC(N)=O)C(=O)N[C@@H](CCCCN)C(=O)N[C@@H](Cc4c[nH]c5ccccc45)C(=O)N[C@@H](CCCC)C(=O)N[C@@H](Cc4c[nH]c5ccccc45)C(=O)N[C@@H]([C@@H](C)O)C(=O)N2)NC(=O)[C@H](CSSC[C@@H](C(=O)N[C@@H](CCCNC(=N)N)C(=O)N[C@@H](CCCCN)C(=O)N[C@H](C(=O)N[C@@H](Cc2c[nH]c4ccccc24)C(N)=O)[C@@H](C)CC)NC(=O)[C@H](Cc2c[nH]c4ccccc24)NC(=O)[C@H](CC(C)C)NC(=O)[C@H](CCCCN)NC3=O)NC1=O [compound 291]	100	38
